In publication PMC5923171, “Novel Zinc-Attenuating Compounds as Potent Broad-Spectrum Antifungal Agents with In Vitro and In Vivo Efficacy” (Antimicrobial Agents and Chemotherapy, 2018):
In brackets after ≈: the same amount, converted by molar mass.

Experiments:
[1] = Human hepatocyte (HepG2) proliferation assay; assay type: cell-based; settings: human, HepG2 cells, XTT; for EC50 at 24 h: 24 h exposure; for EC50 at 72 h: 72 h exposure
Description: In each well of a 96-well tissue culture plate (GR-655180; Grenier), 10,000 human hepatocytes (HepG2) (85011430; […] Sigma]) supplemented with 2 mM L-[…]-020-1B; Biological Industries), 1% nonessential amino acids (XC-[…]/100; Biosera), and 10% fetal bovine serum (BI-04-007-1A; Biological Industries), and plates were incubated overnight at 37°C and 5% CO2. […] The plate was incubated for a further 24 h or 72 h at 37°C and 5% CO2. The medium was then replaced with 100 μl of freshly prepared 2,3-bis-(2-methoxy-4-nitro-5-sulfophenyl)-2H-tetrazolium-5-carboxanilide salt (XTT) sodium salt solution (0.5 mg/ml of XTT; […]; Sigma) in RPMI 1640 ([…]; Sigma-Aldrich) with 3.83 μg/ml of phenazine methosulfate ([…]; Sigma-Aldrich) and incubated 2 to 3 h at 37°C and 5% CO2 ([43]). The color reaction was measured on Victor X5 plate reader (Perkin-Elmer) at OD450, and the half-maximal effective concentration (EC50) was calculated. Tamoxifen (85256; Sigma) was used as a positive-control compound.

[2] = Potentiometric titration with MgCl2; assay type: binding; settings: DMSO-water (70:30, vol/vol)
[3] = Solubility in water at millimolar concentrations; assay type: physicochemical
[4] = tested on: C. parapsilosis ATCC 22019; test: Antifungal susceptibility testing (MIC); assay type: cell-based, Candida parapsilosis; settings: Lodderomyces parapsilosis, ATCC22019; at least 50% growth inhibition, RPMI, 24 h, 34°C
Description: Antifungal susceptibility testing was carried out as described previously ([38], [39]), with a few modifications. Briefly, for each yeast or mold growth inhibition assay, frozen stocks of yeast cells or spores were diluted to a final concentration of 0.5 × 10^5 to 2.5 × 10^5 CFU/ml in sterile water. ZAC989, ZAC307, and ZAC623 were dissolved in DMSO to 10 mM stocks from which half-log serial dilutions were prepared. Growth assays were subsequently performed by pipetting 3 μl of compound dissolved in DMSO (giving a final concentration of 1.5% DMSO), 100 μl of cell-spore suspension, and 97 μl of 2× RPMI medium (20.8 g/liter of RPMI 1640 medium, 69.06 g/liter of morpholinepropanesulfonic acid [MOPS], 36 g/liter of glucose) into a microtiter plate that was incubated for 24 h (yeasts) or 48 to 72 h (molds) at 34°C. Fungal growth was determined spectrophotometrically by optical density reading of each well at a wavelength of 492 nm on a Victor X5 (Perkin-Elmer) plate reader. […] Standard errors between repeated experiments were generally below 5%. The growth effect of exogenous addition of various divalent metals was evaluated by performing the antifungal susceptibility assay in the presence of 5 μM ZAC989 or ZAC307 and with increasing concentrations (0.003 to 50 μM) of ZnSO4, CuSO4, (NH4)2Fe(SO4)2, MgCl2, and CaCl2.

[5] = Potentiometric titration, deprotonation constant; assay type: physicochemical; settings: DMSO-water (70:30, vol/vol), 25°C, 0.1 M NaClO4
Description: (§1) The Zn^2+-binding properties of ZAC307 and ZAC989 were further evaluated using a potentiometric assay, where pH is measured as a function of base (NaOH) added to the compound in either the absence or presence of metal. […] To determine the deprotonation constant, a solution of 1 mM ZAC307 or ZAC989 was titrated with 0.3 M NaOH at constant ionic strength (Fig. 2A and B). In a second run, the same titration was performed in the presence of 0.5 eq of Zn^2+ for ZAC307 and ZAC989. A shift in the pH curve in the presence of the metal (ZAC307, 0.5 eq of Zn^2+ [Fig. 2A]) compared to the absence of the metal (ZAC307 [Fig. 2A]) indicates binding of Zn^2+ to the compound. The measured pH data were analyzed with the Hyperquad program suite, taking into account all relevant equilibrium constants, including also the constants for metal hydroxylation. The analysis provides the pKa values and metal complex stability constants, as well as ligand-metal complex speciation calculation, indicating how many ZAC molecules are involved in coordinating the Zn^2+ ion at different pH values. […] ZAC989 bound copper with the formation constants log β1, log β2, and log β3 of 7.83, 13.37, and 20.62, respectively. The most dominant ZAC989-copper stoichiometry was a 3:1 stoichiometry (Fig. 2E).
Potentiometric measurements were carried out in DMSO-water (70:30, vol/vol) at 25°C as described previously ([22]). […]

[6] = Potentiometric titration, ligand-Zn(II) complex formation; assay type: binding; settings: DMSO-water (70:30, vol/vol), 0.5 eq of Zn^2+
Description: as §1
Potentiometric measurements were carried out in DMSO-water (70:30, vol/vol) at 25°C as described previously ([22]). Titrations were performed with a pH meter (Denver Instruments) utilizing a glass electrode with AgCl reference filled with 3.0 M KCl. The electrode was equilibrated in DMSO-water (70:30, vol/vol) for at least 1 h before use. All experiments were performed at a constant ionic strength (0.1 M NaClO4). Three milliliters of a solution containing 1 mM compound was titrated with 0.3 M NaOH by manual additions in 1- to 5-μl increments with magnetic stirring. The metal-ligand binding constants were obtained from titrations of the metal complex solutions prepared in a 1:2 metal-to-ligand ratio. The titration data were refined by the nonlinear least-squares refinement program Hyperquad2013 ([37]) to determine the deprotonation and stability constants.

Row | Compound | EC50 at 24 h [1] | EC50 at 72 h [1] | Mg^2+ binding [2] | solubility in water [3] | MIC [4] | pKa [5] | formation constant log β1 (1:1 ligand-Zn(II) complex) [6] | formation constant log β2 (2:1 ligand-Zn(II) complex) [6] | formation constant log β3 (3:1 ligand-Zn(II) complex) [6]
1 | O=C(O)CN(CCN(CC(=O)O)CC(=O)O)CC(=O)O [EDTA] | > 28 mg/L | > 29 mg/L | – | – | – | – | – | – | –
2 | Cc1cc(O)n(-c2cc(N3CC[C@H](Oc4cnccc4C#N)C3)ncn2)n1 [ZAC989, 3-[(3S)-1-[6-(5-hydroxy-3-methyl-pyrazol-1-yl)pyrimidin-4-yl]pyrrolidin-3-yl]oxy-pyridine-4-carbonitrile] | > 28 mg/L | 6.9 ± 0.7 mg/L (≈ 19 µM) | negligible | poor solubility in water | 0.8 mg/L (≈ 2.2 µM) | 7.7 | 7.35 | 14.30 | 19.71
3 | CN(C)c1cc(-n2nc(-c3ccccc3)cc2O)ncn1 [ZAC307, 2-[6-(dimethylamino)pyrimidin-4-yl]-5-phenyl-pyrazol-3-ol] | > 28 mg/L | 13.2 ± 0.8 mg/L (≈ 46.9 µM) | negligible | poor solubility in water | 0.4 mg/L (≈ 1.42 µM) | 6.84 | 7.47 | 13.27 | 18.14
4 | c1ccc(CN(CCN(Cc2ccccn2)Cc2ccccn2)Cc2ccccn2)nc1 [TPEN, N,N,N’,N’-tetrakis(2-pyridylmethyl)-ethylenediamine] | 1.6 ± 0.2 mg/L (≈ 3.77 µM) | 1.4 ± 0.8 mg/L (≈ 3.3 µM) | – | – | – | – | – | – | –
